Drawing on ChEMBL document CHEMBL5316284, “Structural Determinants of Indole-2-carboxamides: Identification of Lead Acetamides with Pan Antimycobacterial Activity” (J Med Chem, 2023), this text covers MIC for 3 molecules.

In brackets after ≈: the same amount, converted by molar mass.

Common to all, as to format: functional
Experiment [1] concerns Mycobacterium tuberculosis. Put plainly: Antimycobacterial activity against Mycobacterium tuberculosis harbouring mmpL3 G253E mutant gene assessed as inhibition of bacterial growth by visual analysis.
Experiment [2] relates to Mycobacterium tuberculosis. The experiment can be described thus: Antimycobacterial activity against Mycobacterium tuberculosis harbouring mmpL3 V684G mutant gene assessed as inhibition of bacterial growth by visual analysis.
Experiment [3] relates to Mycobacterium tuberculosis. The experiment can be described thus: Antimycobacterial activity against Mycobacterium tuberculosis harbouring mmpL3 S591l mutant gene assessed as inhibition of bacterial growth by visual analysis.
In experiment [4] the test system is Mycobacterium tuberculosis. The experiment can be described thus: Antimycobacterial activity against Mycobacterium tuberculosis harbouring mmpL3 S288T mutant gene assessed as inhibition of bacterial growth by visual analysis.
Experiment [5] deals with Mycobacterium tuberculosis. The experiment can be described thus: Antimycobacterial activity against Mycobacterium tuberculosis harbouring wild-type mmpL3 gene assessed as inhibition of bacterial growth by visual analysis.
For experiment [6], the system named is Mycobacterium tuberculosis. The experiment can be described thus: Antimycobacterial activity against Mycobacterium tuberculosis harbouring mmpL3 S309C mutant gene assessed as inhibition of bacterial growth by visual analysis.
Experiment [7] deals with Mycobacterium tuberculosis. The experiment can be described thus: Antimycobacterial activity against Mycobacterium tuberculosis harbouring mmpL3 L567P mutant gene assessed as inhibition of bacterial growth by visual analysis.
Experiment [8] deals with Mycobacterium tuberculosis. The experiment can be described thus: Antimycobacterial activity against Mycobacterium tuberculosis harbouring mmpL3 L189R mutant gene assessed as inhibition of bacterial growth by visual analysis.
Experiment [9] concerns Mycobacterium tuberculosis. The experiment can be described thus: Antimycobacterial activity against Mycobacterium tuberculosis harbouring mmpL3 V684A mutant gene assessed as inhibition of bacterial growth by visual analysis.
Experiment [10] deals with Mycobacterium tuberculosis. Put plainly: Antimycobacterial activity against Mycobacterium tuberculosis harbouring mmpL3 F644C mutant gene assessed as inhibition of bacterial growth by visual analysis.

For `O=C(CNc1cccc(OC(F)(F)F)c1)NC12CC3CC(CC(C3)C1)C2`, the minimal inhibitory concentration (MIC) turned out to be 4 µg/mL (≈ 10.9 µM) in experiment [1]; 0.5 µg/mL (≈ 1.36 µM) in [2]; 4 µg/mL (≈ 10.9 µM) in experiment [3]; 8 µg/mL (≈ 21.7 µM) in experiment [4]; 0.5 µg/mL (≈ 1.36 µM) in experiment [5]; 4 µg/mL (≈ 10.9 µM) in experiment [6]. Moreover, the MIC in experiment [7] stood at 2 µg/mL (≈ 5.43 µM); in experiment [8], 2 µg/mL (≈ 5.43 µM); in experiment [9], 1 µg/mL (≈ 2.71 µM).

For `C[C@@H]1[C@H]2C[C@@H](C[C@H]1NC(=O)CNc1cccc(Cl)c1)C2(C)C`, the MIC in experiment [1] was found to be 4 µg/mL (≈ 12.5 µM); in [2] it was 2 µg/mL (≈ 6.23 µM); in experiment [3], 4 µg/mL (≈ 12.5 µM); in experiment [4], 16 µg/mL (≈ 49.9 µM); in experiment [5], 1 µg/mL (≈ 3.12 µM); in experiment [6] it was 8 µg/mL (≈ 24.9 µM). Besides, the minimal inhibitory concentration (MIC) came to 2 µg/mL (≈ 6.23 µM) in [7], 4 µg/mL (≈ 12.5 µM) in experiment [10], 4 µg/mL (≈ 12.5 µM) in [8] and 2 µg/mL (≈ 6.23 µM) in experiment [9].

With `CC[C@H]1OC(=O)[C@H](C)[C@@H](O[C@H]2C[C@@](C)(OC)[C@@H](O)[C@H](C)O2)[C@H](C)[C@@H](O[C@@H]2O[C@H](C)C[C@H](N(C)C)[C@H]2O)[C@](C)(OC)C[C@@H](C)C(=O)[C@H](C)[C@@H](O)[C@]1(C)O` [CLARITHROMYCIN], the MIC in [1], in experiment [2], in [3], in [4], in experiment [5] and in experiment [6] was 0.5 µg/mL (≈ 0.668 µM) throughout. Further, the minimal inhibitory concentration (MIC) in experiment [7], in experiment [10] and in [8] was 0.5 µg/mL (≈ 0.668 µM) in each case.

As a reminder, the MIC is the least concentration at which growth counts as inhibited.
